According to patent publication EP0512684B1, “Synergistic herbicidal compositions” (DOWELANCO, priority 1991, dated 1992):

Columns and labels:
Type in all cases: in vivo
Viola arvensis [1] = experiment: Postemergent weed control, greenhouse (Example I)
Experimental: (§1) In all Examples, the percent kill and control is measured on a scale of 0 percent = no kill and control 100 percent = complete kill and control. Representative compositions of the present invention were evaluated to determine their effectiveness in synergistic postemergent weed control operations. Suspension emulsions containing varying concentrations of the methylheptyl ester of ((4-amino-3,5-dichloro-6-fluoro-2-pyridinyl)oxy)-acetic acid (Compound B) and N-(2,6-dichloro-3-methylphenyl)-5,7-dimethoxy-1,2,4,-triazolo(1,5a)pyrimidine-2-sulfonamide (Compound A), were prepared as follows: A 250 g per litre suspension concentrate of Compound A was prepared by wet-milling the following ingredients, until a particle size distribution with a volume median diameter of about 2μm was obtained. Varying amounts of the resulting suspension concentrate were added to water to provide the desired concentration of Compound A. Similarly, varying amounts of a commercially available emulsifiable concentrate containing 200 g/l (as acid equivalent) of fluroxypyr 1 methylheptyl ester (Trade Mark […]-2) were added, to provide the desired concentration of Compound B. In each of the tests which follow, the composition was applied at a rate of 200 litres per hectare. Accordingly, in each case, the amount of water to which the suspension concentrate of Compound A and the emulsifiable concentrate of Compound B was added was sufficient to provide the desired application rates, when the resulting composition was used at this application rate. Seeds of the weed species Bilderdykia convolvulus, Viola arvensis, Lamium purpureum, Chenopodium album and Fumaria officinalis, and seeds of the crop plant winter wheat variety Avalon, were planted in beds of good agricultural soil and grown in a greenhouse. […] The results are shown in Tables I to V. In the tables which follow, those runs which include only one but not both of Compound A and Compound B are included as controls. Expected control is calculated as 100 -((% control by Compound A) x (% control by Compound B))/(100) [formula] where % control= 100-actual control according to the technique described in Colby, "Calculating Synergistic and Antagonistic Responses of Herbicidal Combinations", Weeds, Volume 15 (1967), pages 20-22 and Colby, "Greenhouse Evaluation of Herbicidal Combinations", Proc. NEWCC, No. 19, pages 312-320. The percent increase over the expected control is calculated as (Actual control)/(Expected Control)x 100 - 100 [formula]

Chenopodium album = experiment: Postemergent weed control, greenhouse (Example I)
Experimental: as §1

Bilderdykia convolvulus = experiment: Postemergent weed control, greenhouse (Example I)
Experimental: as §1

Lamium purpureum [2] = experiment: Postemergent weed control, greenhouse (Example I)
Experimental: as §1

Fumaria officinalis [3] = experiment: Postemergent weed control, greenhouse (Example I)
Experimental: as §1

Viola arvensis [4] = experiment: Post-emergent weed control by reduction in fresh weight (Examples V, VI and VII)
Experimental: (§2) In all Examples, the percent kill and control is measured on a scale of 0 percent = no kill and control 100 percent = complete kill and control. Expected control is calculated as 100 -((% control by Compound A) x (% control by Compound B))/(100) [formula] where % control= 100-actual control according to the technique described in Colby, "Calculating Synergistic and Antagonistic Responses of Herbicidal Combinations", Weeds, Volume 15 (1967), pages 20-22 and Colby, "Greenhouse Evaluation of Herbicidal Combinations", Proc. NEWCC, No. 19, pages 312-320. The percent increase over the expected control is calculated as (Actual control)/(Expected Control)x 100 - 100 [formula] Table I A 20% w/w suspension concentrate of fluroxypyr acid in water was prepared by wet milling the ingredients shown in Table XVIII until a particle size distribution with a volume median diameter of about 2µm was obtained. Varying amounts of the resulting suspension concentrate were added to water to provide the desired concentration of fluroxypyr acid. […] Varying amounts of the resulting solutions were further diluted with water to provide the desired concentration of the fluroxypyr salt. Similarly, varying amounts of the suspension concentrate of compound A prepared as in Example 1 were added, to provide the desired concentration of compound A. The formulations resulting from Examples V, VI and VII were evaluated to determine their effectiveness in the post-emergent control of the weeds Viola arvensis, Galium aparine, and Matricaria inodora.

Matricaria inodora = experiment: as above
Experimental: as §2

Lamium purpureum [5] = experiment: Weed control by reduction in fresh weight (Example IV)
Experimental: (§3) In all Examples, the percent kill and control is measured on a scale of 0 percent = no kill and control 100 percent = complete kill and control. Expected control is calculated as 100 -((% control by Compound A) x (% control by Compound B))/(100) [formula] where % control= 100-actual control according to the technique described in Colby, "Calculating Synergistic and Antagonistic Responses of Herbicidal Combinations", Weeds, Volume 15 (1967), pages 20-22 and Colby, "Greenhouse Evaluation of Herbicidal Combinations", Proc. NEWCC, No. 19, pages 312-320. The percent increase over the expected control is calculated as (Actual control)/(Expected Control)x 100 - 100 [formula] Table I An emulsifiable concentrate of fluroxypyr methyl ester (as compound B) was prepared having the following composition. Varying amounts of this emulsifiable concentrate containing 100 g/l Fluroxypyr methyl ester (as acid equivalent) were added to a suspension concentrate of compound A prepared as in Example I, to provide the desired concentration of Compound B. The resulting formulation was tested against the following weeds, at the growth stage indicated, by the method described above. [table] In each case, the composition was applied ata rate of 200 litres per hectare. The percent of control was assessed by visual percent control (tables VIII to XII) and also by measurement of fresh weight (tables XIII to XVII).

Fumaria officinalis [6] = experiment: Postemergent weed control, field trials (Example II)
Experimental: In all Examples, the percent kill and control is measured on a scale of 0 percent = no kill and control 100 percent = complete kill and control. Expected control is calculated as 100 -((% control by Compound A) x (% control by Compound B))/(100) [formula] where % control= 100-actual control according to the technique described in Colby, "Calculating Synergistic and Antagonistic Responses of Herbicidal Combinations", Weeds, Volume 15 (1967), pages 20-22 and Colby, "Greenhouse Evaluation of Herbicidal Combinations", Proc. NEWCC, No. 19, pages 312-320. The percent increase over the expected control is calculated as (Actual control)/(Expected Control)x 100 - 100 [formula] Table I A number of compositions in accordance with the present invention were prepared as in Example I and evaluated in field trials to determine their effectiveness in the postemergent control of the weed Fumaria officinalis growing in the presence of spring barley of the variety Triumph. Seeds of the plants spring barley of the variety Triumph and the weed specie Fumaria officinalis were planted in plots 6 meters x 3 meters composed of calcareous clay loam soil. Two months after planting, the plants were sprayed at a rate of 200 litre/hectare with one of the compositions having an active material control such as to give treatment rates shown in Table VI. […]

Viola arvensis [7] = experiment: Weed control, visual percent control (Example IV)
Experimental: as §3

Veronica persica = experiment: Weed control, visual percent control (Example IV)
Experimental: as §3

Galium aparine = experiment: Weed control, visual percent control (Example IV)
Experimental: as §3

## COc1cc(OC)n2nc(S(=O)(=O)Nc3c(Cl)ccc(C)c3Cl)nc2n1 [Cmpd A, N-(2,6-dichloro-3-methylphenyl)-5,7-dimethoxy-1,2,4,-triazolo(1,5a)pyrimidine-2-sulfonamide]
Viola arvensis [1]; Cmpd A 6.25 g/ha alone
  Actual Control (%) 17 days after treatment: 15%
Viola arvensis [1]; Cmpd A 12.50 g/ha alone
  Actual Control (%) 17 days after treatment: 36%
Viola arvensis [1]; Cmpd A 25.00 g/ha alone
  Actual Control (%) 17 days after treatment: 39%
Viola arvensis [1]; Cmpd A 50.00 g/ha alone
  Actual Control (%) 17 days after treatment: 50%
Chenopodium album; Cmpd A 3.125 g/ha alone
  Actual Control 19 days after treatment (%): 47%
Chenopodium album; Cmpd A 6.25 g/ha alone
  Actual Control 19 days after treatment (%): 60%
Chenopodium album; Cmpd A 12.50 g/ha alone
  Actual Control 19 days after treatment (%): 55%
Chenopodium album; Cmpd A 25.00 g/ha alone
  Actual Control 19 days after treatment (%): 60%
Bilderdykia convolvulus; Cmpd A 6.25 g/ha alone
  Actual Control (%) 32 days after treatment: 0%
Bilderdykia convolvulus; Cmpd A 12.50 g/ha alone
  Actual Control (%) 32 days after treatment: 45%
Bilderdykia convolvulus; Cmpd A 25.00 g/ha alone
  Actual Control (%) 32 days after treatment: 30%
Bilderdykia convolvulus; Cmpd A 50.00 g/ha alone
  Actual Control (%) 32 days after treatment: 53%
Lamium purpureum [2]; Cmpd A 6.25 g/ha alone
  Actual Control (%) 12 days after treatment: 18%
Lamium purpureum [2]; Cmpd A 12.50 g/ha alone
  Actual Control (%) 12 days after treatment: 24%
Lamium purpureum [2]; Cmpd A 25.00 g/ha alone
  Actual Control (%) 12 days after treatment: 25%
Lamium purpureum [2]; Cmpd A 50.00 g/ha alone
  Actual Control (%) 12 days after treatment: 23%
Fumaria officinalis [3]; Cmpd A 3.125 g/ha alone
  Actual Control 19 days after treatment (%): 5%
Fumaria officinalis [3]; Cmpd A 6.25 g/ha alone
  Actual Control 19 days after treatment (%): 18%
Fumaria officinalis [3]; Cmpd A 12.50 g/ha alone
  Actual Control 19 days after treatment (%): 0%
Fumaria officinalis [3]; Cmpd A 25.00 g/ha alone
  Actual Control 19 days after treatment (%): 18%
Viola arvensis [4]; Cmpd A 6.25 g/ha
  Actual Control (%) 23 days after treatment: 20%
Viola arvensis [4]; Cmpd A 6.25 g/ha, Table XX
  Actual Control (%) 23 days after treatment: 20%
Viola arvensis [4]; Cmpd A 12.50 g/ha
  Actual Control (%) 23 days after treatment: 50%
Viola arvensis [4]; Cmpd A 12.50 g/ha, Table XX
  Actual Control (%) 23 days after treatment: 50%
Viola arvensis [4]; Cmpd A 25.00 g/ha
  Actual Control (%) 23 days after treatment: 52%
Viola arvensis [4]; Cmpd A 25.00 g/ha, Table XX
  Actual Control (%) 23 days after treatment: 52%
Viola arvensis [4]; Cmpd A 50.00 g/ha
  Actual Control (%) 23 days after treatment: 60%
Viola arvensis [4]; Cmpd A 50.00 g/ha, Table XX
  Actual Control (%) 23 days after treatment: 60%
Matricaria inodora; Cmpd A 6.25 g/ha
  Actual Control (%) 17 days after treatment: 7%
Matricaria inodora; Cmpd A 12.50 g/ha
  Actual Control (%) 17 days after treatment: 32%
Matricaria inodora; Cmpd A 25.00 g/ha
  Actual Control (%) 17 days after treatment: 75%
Matricaria inodora; Cmpd A 50.00 g/ha
  Actual Control (%) 17 days after treatment: 72%
Lamium purpureum [5]; Cmpd A 3.125 g/ha
  Actual Reduction (%) 19 days after treatment: 4%
Lamium purpureum [5]; Cmpd A 6.25 g/ha
  Actual Reduction (%) 19 days after treatment: 0%
Lamium purpureum [5]; Cmpd A 12.5 g/ha
  Actual Reduction (%) 19 days after treatment: 19%
Lamium purpureum [5]; Cmpd A 25.0 g/ha
  Actual Reduction (%) 19 days after treatment: 11%
Fumaria officinalis [6]; Cmpd A 10.0 g/ha alone
  Actual Control 28 days after treatment (%): 0.0%
Fumaria officinalis [6]; Cmpd A 20.0 g/ha alone
  Actual Control 28 days after treatment (%): 15.0%
Viola arvensis [7]; Cmpd A 3.125 g/ha alone
  Actual Control (%) 19 days after treatment: 22%
Viola arvensis [7]; Cmpd A 6.25 g/ha alone
  Actual Control (%) 19 days after treatment: 12%
Viola arvensis [7]; Cmpd A 12.5 g/ha alone
  Actual Control (%) 19 days after treatment: 55%
Viola arvensis [7]; Cmpd A 25.0 g/ha alone
  Actual Control (%) 19 days after treatment: 72%
Veronica persica; Cmpd A 3.125 g/ha alone
  Actual Control (%) 19 days after treatment: 10%
Veronica persica; Cmpd A 6.25 g/ha alone
  Actual Control (%) 19 days after treatment: 20%
Veronica persica; Cmpd A 12.5 g/ha alone
  Actual Control (%) 19 days after treatment: 28%
Veronica persica; Cmpd A 25.0 g/ha alone
  Actual Control (%) 19 days after treatment: 30%
Galium aparine; Cmpd A 3.125 g/ha alone
  Actual Control (%) 19 days after treatment: 0%
Galium aparine; Cmpd A 6.25 g/ha alone
  Actual Control (%) 19 days after treatment: 0%
Galium aparine; Cmpd A 12.5 g/ha alone
  Actual Control (%) 19 days after treatment: 0%
Galium aparine; Cmpd A 25.0 g/ha alone
  Actual Control (%) 19 days after treatment: 0%
